Measurements published in the NIST ThermoML archive (doi:10.1016/j.jct.2006.08.009).
Numbers after ± are expanded uncertainties.

Assay: mn = molality of the nth substance listed, in mol/kg
Conditions: 350 kPa, Liquid; for apparent molar heat capacity: Extra sensitive DSC

OC[C@@H](O)[C@H](O)[C@@H](O)CO [xylitol] + O
Conditions | apparent molar heat capacity [J/K/mol] | mass density [kg/m3]
278.15 K, m1 = 0.0499 | 278.9 ± 21 | 1002.96 ± 0.18
278.15 K, m1 = 0.1 | 288.4 ± 12 | 1005.41 ± 0.18
278.15 K, m1 = 0.4001 | 293.3 ± 6.1 | 1020.49 ± 0.21
278.15 K, m1 = 0.7496 | 297.2 ± 5.2 | 1036.91 ± 0.24
278.15 K, m1 = 1.001 | 299.5 ± 5 | 1047.83 ± 0.27
278.15 K, m1 = 1.498 | 303.4 ± 4.5 | 1067.95 ± 0.31
278.15 K, m1 = 1.997 | 301.8 ± 4.3 | 1086.45 ± 0.35
278.15 K, m1 = 2.701 | 311.1 ± 4.1 | 1109.42 ± 0.4
283.15 K, m1 = 0.0499 | 296.8 ± 21 | 1002.63 ± 0.18
283.15 K, m1 = 0.1 | 306.1 ± 12 | 1005.03 ± 0.18
283.15 K, m1 = 0.4001 | 310.2 ± 5.6 | 1019.9 ± 0.21
283.15 K, m1 = 0.7496 | 313.4 ± 4.7 | 1036.06 ± 0.24
283.15 K, m1 = 1.001 | 315.6 ± 4.4 | 1046.82 ± 0.26
283.15 K, m1 = 1.498 | 318.5 ± 4 | 1066.63 ± 0.31
283.15 K, m1 = 1.997 | 317.4 ± 3.7 | 1084.9 ± 0.34
283.15 K, m1 = 2.701 | 325 ± 3.5 | 1107.65 ± 0.39
288.15 K, m1 = 0.0499 | 310.8 ± 21 | 1001.96 ± 0.17
288.15 K, m1 = 0.1 | 319.8 ± 12 | 1004.34 ± 0.18
288.15 K, m1 = 0.4001 | 323.4 ± 5.4 | 1019.04 ± 0.21
288.15 K, m1 = 0.7496 | 326.2 ± 4.5 | 1035 ± 0.24
288.15 K, m1 = 1.001 | 328.1 ± 4.2 | 1045.65 ± 0.26
288.15 K, m1 = 1.498 | 330.3 ± 3.8 | 1065.25 ± 0.3
288.15 K, m1 = 1.997 | 328.7 ± 3.6 | 1083.35 ± 0.34
288.15 K, m1 = 2.701 | 335.7 ± 3.3 | 1105.88 ± 0.39
293.15 K, m1 = 0.0499 | 322.5 ± 21 | –
293.15 K, m1 = 0.1 | 331.4 ± 12 | –
293.15 K, m1 = 0.4001 | 334.8 ± 5.2 | –
293.15 K, m1 = 0.7496 | 337.1 ± 4.3 | –
293.15 K, m1 = 1.001 | 338.8 ± 4.1 | –
293.15 K, m1 = 1.498 | 340.5 ± 3.8 | –
293.15 K, m1 = 1.997 | 338.3 ± 3.6 | –
293.15 K, m1 = 2.701 | 344.9 ± 3.2 | –
298.15 K, m1 = 0.0499 | 332.9 ± 22 | 999.86 ± 0.17
298.15 K, m1 = 0.1 | 341.6 ± 12 | 1002.2 ± 0.17
298.15 K, m1 = 0.4001 | 344.5 ± 5.1 | 1016.61 ± 0.2
298.15 K, m1 = 0.7496 | 346.5 ± 4.3 | 1032.27 ± 0.24
298.15 K, m1 = 1.001 | 347.8 ± 4.1 | 1042.69 ± 0.26
298.15 K, m1 = 1.498 | 349.2 ± 3.6 | 1061.92 ± 0.3
298.15 K, m1 = 1.997 | 346.7 ± 3.4 | 1079.8 ± 0.33
298.15 K, m1 = 2.701 | 352.9 ± 3.2 | 1101.9 ± 0.38
303.15 K, m1 = 0.0499 | 342 ± 22 | –
303.15 K, m1 = 0.1 | 350.4 ± 12 | –
303.15 K, m1 = 0.4001 | 352.9 ± 5.1 | –
303.15 K, m1 = 0.7496 | 354.6 ± 4.2 | –
303.15 K, m1 = 1.001 | 355.8 ± 3.9 | –
303.15 K, m1 = 1.498 | 356.9 ± 3.6 | –
303.15 K, m1 = 1.997 | 354 ± 3.4 | –
303.15 K, m1 = 2.701 | 359.9 ± 3 | –
308.15 K, m1 = 0.0499 | 349.7 ± 22 | 996.7 ± 0.2
308.15 K, m1 = 0.1 | 358.1 ± 12 | 999 ± 0.2
308.15 K, m1 = 0.4001 | 360.4 ± 5.1 | 1013.2 ± 0.2
308.15 K, m1 = 0.7496 | 361.7 ± 4.2 | 1028.7 ± 0.2
308.15 K, m1 = 1.001 | 362.8 ± 3.9 | 1038.8 ± 0.3
308.15 K, m1 = 1.498 | 363.6 ± 3.4 | 1057.9 ± 0.3
308.15 K, m1 = 1.997 | 360.6 ± 3.2 | 1075.2 ± 0.3
308.15 K, m1 = 2.701 | 366.2 ± 3 | 1097.2 ± 0.4
313.15 K, m1 = 0.0499 | 356.5 ± 23 | –
313.15 K, m1 = 0.1 | 365 ± 12 | –
313.15 K, m1 = 0.4001 | 367 ± 5.1 | –
313.15 K, m1 = 0.7496 | 368.1 ± 4.2 | –
313.15 K, m1 = 1.001 | 369.1 ± 3.7 | –
313.15 K, m1 = 1.498 | 369.7 ± 3.4 | –
313.15 K, m1 = 1.997 | 366.6 ± 3.2 | –
313.15 K, m1 = 2.701 | 371.9 ± 3 | –
318.15 K, m1 = 0.0499 | 362.5 ± 23 | 992.82 ± 0.19
318.15 K, m1 = 0.1 | 370.9 ± 12 | 995.17 ± 0.18
318.15 K, m1 = 0.4001 | 372.9 ± 4.9 | 1009.11 ± 0.19
318.15 K, m1 = 0.7496 | 373.8 ± 4 | 1024.37 ± 0.22
318.15 K, m1 = 1.001 | 374.7 ± 3.7 | 1034.54 ± 0.24
318.15 K, m1 = 1.498 | 375.2 ± 3.4 | 1053.25 ± 0.28
318.15 K, m1 = 1.997 | 372 ± 3.2 | 1070.4 ± 0.31
318.15 K, m1 = 2.701 | 377.1 ± 3 | 1092.04 ± 0.36
323.15 K, m1 = 0.0499 | 368.1 ± 24 | –
323.15 K, m1 = 0.1 | 376.3 ± 13 | –
323.15 K, m1 = 0.4001 | 378.3 ± 4.9 | –
323.15 K, m1 = 0.7496 | 379.1 ± 4 | –
323.15 K, m1 = 1.001 | 379.8 ± 3.7 | –
323.15 K, m1 = 1.498 | 380.2 ± 3.4 | –
323.15 K, m1 = 1.997 | 377 ± 3.2 | –
323.15 K, m1 = 2.701 | 381.9 ± 2.8 | –
328.15 K, m1 = 0.0499 | 372.9 ± 24 | 988.29 ± 0.19
328.15 K, m1 = 0.1 | 381.3 ± 13 | 990.59 ± 0.19
328.15 K, m1 = 0.4001 | 383.2 ± 4.9 | 1004.39 ± 0.18
328.15 K, m1 = 0.7496 | 383.8 ± 4 | 1019.46 ± 0.21
328.15 K, m1 = 1.001 | 384.5 ± 3.7 | 1029.53 ± 0.23
328.15 K, m1 = 1.498 | 384.7 ± 3.3 | 1048.03 ± 0.27
328.15 K, m1 = 1.997 | 381.6 ± 3 | 1064.94 ± 0.3
328.15 K, m1 = 2.701 | 386.3 ± 2.8 | 1086.4 ± 0.35
333.15 K, m1 = 0.0499 | 377.6 ± 24 | –
333.15 K, m1 = 0.1 | 385.7 ± 13 | –
333.15 K, m1 = 0.4001 | 387.6 ± 4.9 | –
333.15 K, m1 = 0.7496 | 388.2 ± 4 | –
333.15 K, m1 = 1.001 | 388.8 ± 3.7 | –
333.15 K, m1 = 1.498 | 389 ± 3.3 | –
333.15 K, m1 = 1.997 | 385.9 ± 3 | –
333.15 K, m1 = 2.701 | 390.4 ± 2.8 | –
338.15 K, m1 = 0.0499 | 382 ± 25 | 983.12 ± 0.21
338.15 K, m1 = 0.1 | 389.8 ± 13 | 985.45 ± 0.2
338.15 K, m1 = 0.4001 | 391.8 ± 5.1 | 999.12 ± 0.17
338.15 K, m1 = 0.7496 | 392.3 ± 4 | 1014.03 ± 0.2
338.15 K, m1 = 1.001 | 392.9 ± 3.6 | 1023.97 ± 0.22
338.15 K, m1 = 1.498 | 392.9 ± 3.3 | 1042.32 ± 0.26
338.15 K, m1 = 1.997 | 389.9 ± 3 | 1059.03 ± 0.29
338.15 K, m1 = 2.701 | 394.2 ± 2.8 | 1080.39 ± 0.34
343.15 K, m1 = 0.0499 | 385 ± 25 | –
343.15 K, m1 = 0.1 | 393.6 ± 14 | –
343.15 K, m1 = 0.4001 | 395.5 ± 5.1 | –
343.15 K, m1 = 0.7496 | 395.9 ± 4 | –
343.15 K, m1 = 1.001 | 396.5 ± 3.6 | –
343.15 K, m1 = 1.498 | 396.5 ± 3.3 | –
343.15 K, m1 = 1.997 | 393.5 ± 3 | –
343.15 K, m1 = 2.701 | 397.7 ± 2.8 | –
348.15 K, m1 = 0.0499 | 389 ± 27 | 977.37 ± 0.22
348.15 K, m1 = 0.1 | 396.9 ± 14 | 979.76 ± 0.21
348.15 K, m1 = 0.4001 | 398.9 ± 5.1 | 993.29 ± 0.19
348.15 K, m1 = 0.7496 | 399.3 ± 4 | 1008.12 ± 0.19
348.15 K, m1 = 1.001 | 399.9 ± 3.6 | 1017.97 ± 0.21
348.15 K, m1 = 1.498 | 399.9 ± 3.3 | 1036.22 ± 0.25
348.15 K, m1 = 1.997 | 397 ± 3 | 1052.82 ± 0.28
348.15 K, m1 = 2.701 | 400.9 ± 2.8 | 1074.02 ± 0.32
353.15 K, m1 = 0.0499 | 392 ± 27 | –
353.15 K, m1 = 0.1 | 400 ± 14 | –
353.15 K, m1 = 0.4001 | 401.9 ± 5.1 | –
353.15 K, m1 = 0.7496 | 402.3 ± 4 | –
353.15 K, m1 = 1.001 | 402.9 ± 3.6 | –
353.15 K, m1 = 1.498 | 402.9 ± 3.3 | –
353.15 K, m1 = 1.997 | 400.2 ± 3.1 | –
353.15 K, m1 = 2.701 | 403.9 ± 2.8 | –
358.15 K, m1 = 0.0499 | 394 ± 27 | 971.43 ± 0.23
358.15 K, m1 = 0.1 | 402.5 ± 14 | 973.65 ± 0.22
358.15 K, m1 = 0.4001 | 404.6 ± 5.1 | 986.64 ± 0.2
358.15 K, m1 = 0.7496 | 404.9 ± 4 | 1001.31 ± 0.18
358.15 K, m1 = 1.001 | 405.5 ± 3.6 | 1011.25 ± 0.2
358.15 K, m1 = 1.498 | 405.5 ± 3.3 | 1029.33 ± 0.23
358.15 K, m1 = 1.997 | 403.2 ± 3.1 | 1045.42 ± 0.27
358.15 K, m1 = 2.701 | 406.4 ± 2.8 | 1066.46 ± 0.31
363.15 K, m1 = 0.0499 | 396 ± 28 | –
363.15 K, m1 = 0.1 | 404 ± 15 | –
363.15 K, m1 = 0.4001 | 405.9 ± 5.3 | –
363.15 K, m1 = 0.7496 | 406.2 ± 4 | –
363.15 K, m1 = 1.001 | 406.8 ± 3.6 | –
363.15 K, m1 = 1.498 | 406.7 ± 3.3 | –
363.15 K, m1 = 1.997 | 405.9 ± 3.1 | –
363.15 K, m1 = 2.701 | 407.6 ± 2.8 | –
368.15 K, m1 = 0.0499 | – | 964.45 ± 0.25
368.15 K, m1 = 0.1 | – | 966.77 ± 0.24
368.15 K, m1 = 0.4001 | – | 980.22 ± 0.21
368.15 K, m1 = 0.7496 | – | 994.89 ± 0.18
368.15 K, m1 = 1.001 | – | 1004.67 ± 0.18
368.15 K, m1 = 1.498 | – | 1022.74 ± 0.22
368.15 K, m1 = 1.997 | – | 1039.27 ± 0.25
368.15 K, m1 = 2.701 | – | 1060.25 ± 0.3
